{"source": "patent US7473682B2", "about": "“Angiogenic peptides and uses thereof” (Ramot at Tel Aviv University Ltd., priority 2003, dated 2009)", "key": {"[1]": {"test_system": "ears of nude mice and Balb/C mice", "assay": "In vivo angiogenesis in a mouse-ear model", "details": "for Number of blood vessels: 5 days after inoculation", "experimental": "In Wivo angiogenesis in a mouse-ear model—Ear angiogenesis studies were a modification of an approach described previously (Pettersson, 2000). […] Contralateral ears were injected only with PBS. […] Two days after peptide inoculation, angiogenic effect of peptides could be observed.\nHistological sections—Histological sections of the mouse-ears injected with the angiogenic peptides were performed by fixing tissues in 4% buffered formalin. Sections were embedded in paraffin blocks sectioned in 4 μm thick layers and stained with hematoxolin-eosin."}, "mouse ischemic hind limb [2]": {"test_system": "mouse ischemic hind limb", "assay": "Mouse ischemic hind limb model, blood perfusion (Laser Doppler Imager)", "format": "in vivo", "details": "14 and 19 days following peptide injection, 10 μg", "experimental": "(§1) Mouse ischemic hind limb model—Ischemia was created in the mouse left hind limb by ligation of the femoral artery. The right hind limb served as control. A day after the operation each of the peptides was injected into one site close to the ligation and one site distal to the ligation. Each mouse was treated with each of the peptides in a total amount of 10 μg.\nBlood perfusion in ischemic mice—The percent of blood perfusion was measured using a Laser Doppler Imager (PeriMed, Sweden) at 14 and 19 days after peptides injections. The average percent perfusion of each limb was computed and expressed as the ischemic (left)/control (right) blood perfusion ratio."}, "mouse ischemic hind limb [3]": {"test_system": "mouse ischemic hind limb", "assay": "Mouse ischemic hind limb model, physiological observations (ladder climbing)", "format": "in vivo", "parameters": "key: 1 = walk and climb ... 4 = walk with difficulty, cannot climb", "details": "mean score of 10 mice, 10 μg", "experimental": "as §1\nPhysiological observations—Ischemic mice were evaluated for their ability to climb a ladder on day 1, 4, 7, and 10-post operation. The scoring system was as follows: 1—walk and climb; 2—walk and climb with some difficulty, 3—walk and cannot climb the ladder; 4—walk with difficulties and cannot climb the ladder."}}}
{"substance": "VEGF [reference compound]", "values": [{"measurement": "Number of blood vessels", "setting": "[1]; 10 ng/ear", "value": 17}, {"measurement": "Number of blood vessels in the ears of injected mice (photographs)", "setting": "[1]; VEGF, 100 ng/mouse ear (FIG. 19a)", "value": "increased number of blood vessels"}]}
{"substance": "FGF: positive control, the angiogenic molecule FGF [reference compound]", "values": [{"measurement": "The blood perfusion ratio (in percentages) of the ischemic vs. control limbs, Mean", "setting": "mouse ischemic hind limb [2]", "value": 93.438, "unit": "percentages"}, {"measurement": "Physiological score (ability to climb a ladder) Day 1", "setting": "mouse ischemic hind limb [3]; 1 = walk and climb ... 4 = walk with difficulties and cannot climb, day 1 post operation", "value": 2.57}, {"measurement": "Physiological score (ability to climb a ladder) Day 4", "setting": "mouse ischemic hind limb [3]; scale 1-4, day 4 post operation", "value": 2}, {"measurement": "Physiological score (ability to climb a ladder) Day 7", "setting": "mouse ischemic hind limb [3]; scale 1-4, day 7 post operation", "value": 1}, {"measurement": "Physiological score (ability to climb a ladder) Day 10", "setting": "mouse ischemic hind limb [3]; scale 1-4, day 10 post operation", "value": 1}, {"measurement": "Number of blood vessels", "setting": "[1]; 3 ng/ear", "value": 11}, {"measurement": "Peptide/PBS = ratio between the No. of blood vessels in the peptide-injected ear and in the PBS-injected ear", "setting": "[1]; mouse ears, contralateral ear PBS", "value": 2.08}]}
